Assay results reported in patent publication US7923004B2 (priority 2006, dated 2011).

Assays:
Assay type in all cases: cell-based
[1] = system: HCV genotype 1b replicon (Huh-Luc-Neo cells); test: HCV Replicon Luciferase Assay; conditions: Hepatitis C virus, Huh-Luc-Neo cells, genotype 1b, 72 h, read-out: HCV-1b Replicon Inhibition*, Luciferase (EC50)
[2] = system: HCV genotype 1b replicon (Huh-Luc-Neo cells); test: HCV Replicon RNA (Taqman) Assay, genotype 1b; conditions: Hepatitis C virus, Huh-Luc-Neo cells, genotype 1b, HCV RNA, 72 h, read-out: HCV-1b Replicon Inhibition*, Taqman (EC50)
[3] = Cell Titer-Glo Cell Viability Assay, genotype 1b cells; conditions: human, Huh-Luc-Neo (HCV genotype 1b replicon) cells, HCV genotype 1b assays, read-out: Cytotoxicity* (CC50)
Description: Cell Seeding and Compound Treatment: Huh-Luc-Neo (Genotype 1b) or En5-3/Htat2ANeo (Genotype 1a) cells are seeded at 5000-7000/well in an opaque-walled 96 plate with Growth Medium (DMEM phenol red free+PS+2 mM glutamine; 100 ul/well). The compounds to be tested for inhibition of cell viability are added to the experimental wells so as to generate a dose response curve (8-9 concentrations, 10 μl/well at 10× assay concentration) and the cells are then incubated (5% CO2, 37° C.) for 72 h.
Reagent Preparation and Assay: After completion of the incubation period the cell viability measurements are made using the Cell Titre Glo Assay (Promega) according to the manufacturer's recommended protocol. Briefly, the CellTiter-Glo Buffer is thawed and equilibrated to room temperature prior to use. The lyophilized CellTiter-Glo Substrate is also equilibrated to room temperature prior to use. 10 ml of CellTiter-Glo Buffer is then transferred to 1 vial of CellTiter-Glo Substrate and mixed gently with a Vortex. 100 μl of CellTiter-Glo Assay reagent (CellTiter-Glo Buffer+CellTiter-Glo Substrate Mixture) is added to each well. The well contents are mixed for 5 min. on an orbital shaker at room temperature to induce cell lysis and the luminescence is then measured using a luminometer.

| Compound | EC50 [1] | EC50 [2] | CC50 at 72 h [3] | EC50 ([1]; GETYPE1B) | EC50 ([2]; GETYPE1B) |
| --- | --- | --- | --- | --- | --- |
| Cc1ccc(O)c(-c2nn(C)cc2C#Cc2ccc(NC(=O)C3CCCCN3C(=O)C(NC(=O)OC(C)(C)C)c3ccccc3)cc2)c1 (stereo not drawn) [Compound 1] | 1 to 10 µM | < 1 µM | > 100 µM |  |  |
| Cc1ccc(O)c(-c2nn(C)cc2C#Cc2ccc(NC(=O)[C@H]3CCCCN3C(=O)[C@H](Cc3ccccc3)NC(=O)OC(C)(C)C)cc2)c1 [Compound 2] | < 1 µM | < 1 µM | > 100 µM |  |  |
| Cc1ccc(O)c(-c2nn(C)cc2C#Cc2ccc(NC(=O)C3CCCCN3C(=O)[C@H](Cc3cccnc3)NC(=O)OC(C)(C)C)cc2)c1 (stereo partly drawn) [Compound 3] | < 1 µM | < 1 µM | > 100 µM |  |  |
| COc1ccc(C[C@H](NC(=O)OC(C)(C)C)C(=O)N2CCCCC2C(=O)Nc2ccc(C#Cc3cn(C)nc3-c3cc(C)ccc3O)cc2)cc1 (stereo partly drawn) [Compound 4] | < 1 µM | < 1 µM | < 1 µM |  |  |
| Cc1ccc(O)c(-c2nn(C)cc2C#Cc2ccc(NC(=O)C3CCCCN3C(=O)[C@H](Cc3ccc(F)cc3)NC(=O)OC(C)(C)C)cc2)c1 (stereo partly drawn) [Compound 5] | < 1 µM | < 1 µM | > 100 µM |  |  |
| Cc1ccc(O)c(-c2nn(C)cc2C#Cc2ccc(NC(=O)C3CCCCN3C(=O)[C@H](Cc3ccc(Cl)cc3Cl)NC(=O)OC(C)(C)C)cc2)c1 (stereo partly drawn) [Compound 6] | < 1 µM | < 1 µM | > 100 µM |  |  |
| Cc1ccc(O)c(-c2nn(C)cc2C#Cc2ccc(NC(=O)C3CCCCN3C(=O)[C@H](CCc3ccccc3)NC(=O)OC(C)(C)C)cc2)c1 (stereo partly drawn) [Compound 7A] |  |  | 10 to 100 µM | < 1 µM | < 1 µM |
| Cc1ccc(O)c(-c2nn(C)cc2C#Cc2ccc(NC(=O)C3CCCCN3C(=O)[C@H](Cc3ccccc3)NC(=O)CC3CCCC3)cc2)c1 (stereo partly drawn) [Compound 7] | < 1 µM | < 1 µM | > 100 µM |  |  |
| Cc1ccc(O)c(-c2nn(C)cc2C#Cc2ccc(NC(=O)C3CCCCN3C(=O)[C@H](Cc3ccccc3)NC(=O)CC(C)(C)C)cc2)c1 (stereo partly drawn) [Compound 8] | < 1 µM | < 1 µM | 10 to 100 µM |  |  |
| Cc1ccc(O)c(-c2nn(C)cc2C#Cc2ccc(NC(=O)C3CCCCN3C(=O)[C@H](Cc3ccccc3)NC(=O)CC3CCCCC3)cc2)c1 (stereo partly drawn) [Compound 9] | < 1 µM | < 1 µM | 10 to 100 µM |  |  |
| Cc1ccc(O)c(-c2nn(C)cc2C#Cc2ccc(NC(=O)C3CCCCN3C(=O)[C@H](Cc3ccccc3)NC(=O)C3CCCCC3)cc2)c1 (stereo partly drawn) [Compound 10] | < 1 µM | < 1 µM | 10 to 100 µM |  |  |
| Cc1ccc(OS(=O)(=O)C(F)(F)F)c(-c2nn(C)cc2C#Cc2ccc(NC(=O)C3CCCCN3C(=O)[C@H](Cc3ccccc3)NC(=O)OC(C)(C)C)cc2)c1 (stereo partly drawn) [Compound 11] | < 1 µM | < 1 µM | > 100 µM |  |  |
| Cc1ccc(O)c(-c2nn(C)cc2C#Cc2ccc(NC(=O)C3CCCCN3C(=O)[C@H](Cc3ccco3)NC(=O)OC(C)(C)C)cc2)c1 (stereo partly drawn) [Compound 12A] |  |  | 10 to 100 µM | < 1 µM | < 1 µM |
| Cc1ccc(O)c(-c2nn(C)cc2C#Cc2ccc(NC(=O)C3CCCCN3S(=O)(=O)c3cccs3)cc2)c1 (stereo not drawn) [Compound 12] | < 1 µM | < 1 µM | > 100 µM |  |  |
| Cc1ccc(O)c(-c2nn(C)cc2C#Cc2ccc(NC(=O)C3CCCCN3C(=O)[C@@H](NC(=O)OC(C)(C)C)C3CCCCC3)cc2)c1 (stereo partly drawn) [Compound 13] | 1 to 10 µM | < 1 µM | > 100 µM |  |  |
| Cc1ccc(O)c(-c2nn(C)cc2C#Cc2ccc(NC(=O)C3CCCCN3C(=O)[C@H](Cc3ccccc3)NC(=O)OC(C)(C)C)cc2)c1 (stereo partly drawn) [Compound 14] | < 1 µM | < 1 µM | > 100 µM |  |  |
| Cc1ccc(O)c(-c2nn(C)cc2C#Cc2ccc(NC(=O)[C@@H]3CCCCN3C(=O)[C@@H](Cc3ccccc3)NC(=O)OC(C)(C)C)cc2)c1 [Compound 15] | < 1 µM | < 1 µM | > 100 µM |  |  |
| Cc1ccc(O)c(-c2nn(C)cc2C#Cc2ccc(NC(=O)[C@@H]3CCCCN3C(=O)[C@H](NC(=O)OC(C)(C)C)c3ccccc3)cc2)c1 [Compound 16] | < 1 µM | < 1 µM | > 100 µM |  |  |

| Compound | EC50 [1] | EC50 [2] | CC50 at 72 h [3] | EC50 ([1]; GETYPE1B) | EC50 ([2]; GETYPE1B) |
| --- | --- | --- | --- | --- | --- |
| COc1ccccc1[C@@H](NC(=O)OC(C)(C)C)C(=O)N1CCOC[C@H]1C(=O)Nc1ccc(C#Cc2cn(C)nc2-c2cc(C#N)ccc2O)cc1 [Compound 22A] |  |  | > 100 µM | < 1 µM | < 1 µM |
| Cn1cc(C#Cc2ccc(NC(=O)[C@@H]3CCCCN3C(=O)[C@H](NC(=O)OC(C)(C)C)c3ccccc3)cc2)c(-c2cc(Br)ccc2O)n1 [Compound 22] | < 1 µM | < 1 µM | 10 to 100 µM |  |  |
| Cc1ccc(O)c(-c2nn(C)cc2C#Cc2ccc(NC(=O)C3CCCCN3C(=O)[C@H](Cc3ccc(Cl)cc3)NC(=O)OC(C)(C)C)cc2)c1 (stereo partly drawn) [Compound 23] | < 1 µM | < 1 µM | 10 to 100 µM |  |  |
| Cc1ccc(O)c(-c2nn(C)cc2C#Cc2ccc(NC(=O)C3CCCCN3C(=O)[C@H](Cc3ccc(C(N)=O)cc3)NC(=O)OC(C)(C)C)cc2)c1 (stereo partly drawn) [Compound 24] | < 1 µM | < 1 µM | 10 to 100 µM |  |  |
| Cc1ccc(O)c(-c2nn(C)cc2C#Cc2ccc(NC(=O)C3CCCCN3C(=O)[C@H](Cc3ccc(Br)cc3)NC(=O)OC(C)(C)C)cc2)c1 (stereo partly drawn) [Compound 26] | < 1 µM | < 1 µM | 10 to 100 µM |  |  |
| Cc1ccc(O)c(-c2nn(C)cc2C#Cc2ccc(NC(=O)[C@@H]3CNCCN3C(=O)[C@H](NC(=O)OC(C)(C)C)c3ccccc3)cc2)c1 [Compound 27A] |  |  | 10 to 100 µM | < 1 µM | < 1 µM |
| Cc1ccc(O)c(-c2nn(C)cc2C#Cc2ccc(NC(=O)C3CCCCN3C(=O)[C@H](Cc3cccc(F)c3)NC(=O)OC(C)(C)C)cc2)c1 (stereo partly drawn) [Compound 27] | < 1 µM | < 1 µM | 10 to 100 µM |  |  |
| CC(C)(C)OC(=O)N[C@@H](C(=O)N1CCOCC1C(=O)Nc1ccc(C#Cc2cn(CCO)nc2-c2cc(Cl)ccc2O)cc1)c1ccccc1 (stereo partly drawn) [Compound 30A] |  |  | > 100 µM | < 1 µM | < 1 µM |
| CCOC(=O)c1ccc(O)c(-c2nn(C)cc2C#Cc2ccc(NC(=O)[C@@H]3CCCCN3C(=O)[C@H](NC(=O)OC(C)(C)C)c3ccccc3)cc2)c1 [Compound 30] | < 1 µM | < 1 µM | > 100 µM |  |  |
| CCOC(=O)c1ccc(O)c(-c2nn(C)cc2C#Cc2ccc(NC(=O)[C@@H]3CCCCN3C(=O)[C@H](NC(=O)OC(C)(C)C)c3ccccc3OC)cc2)c1 [Compound 31] | < 1 µM | < 1 µM | > 100 µM |  |  |
| CCOC(=O)c1ccc(O)c(-c2nn(C)cc2C#Cc2ccc(NC(=O)[C@@H]3CCCCN3C(=O)[C@H](NC(=O)OC(C)(C)C)c3ccsc3)cc2)c1 [Compound 33] | < 1 µM | < 1 µM | > 100 µM |  |  |
| Cn1cc(C#Cc2ccc(NC(=O)[C@@H]3COCCN3C(=O)[C@H](NC(=O)OC(C)(C)C)c3ccsc3)cc2)c(-c2cc(C#N)ccc2O)n1 [Compound 34] | < 1 µM | < 1 µM | > 100 µM |  |  |
| Cn1cc(C#Cc2ccc(NC(=O)[C@@H]3COCCN3C(=O)[C@H](NC(=O)OC(C)(C)C)c3ccccc3)cc2)c(-c2cc(C#N)ccc2O)n1 [Compound 37] | < 1 µM | < 1 µM | > 100 µM |  |  |
| CC(C)(C)OC(=O)N[C@@H](C(=O)N1CCCC[C@H]1C(=O)Nc1ccc(C#Cc2c[nH]nc2-c2cc(Cl)ccc2O)cc1)c1ccccc1 [Compound 38] | < 1 µM | < 1 µM | > 100 µM |  |  |
| CC(C)(C)OC(=O)N[C@@H](C(=O)N1CCCC[C@H]1C(=O)Nc1ccc(C#Cc2cn(CCO)nc2-c2cc(Cl)ccc2O)cc1)c1ccccc1 [Compound 39] | < 1 µM | < 1 µM | 10 to 100 µM |  |  |
| Cc1ccc(O)c(-c2nn(C)cc2C#Cc2ccc(NC(=O)[C@@H]3CN(C(=O)C(F)(F)F)CCN3C(=O)[C@H](NC(=O)OC(C)(C)C)c3ccccc3)cc2)c1 [Compound 41] | < 1 µM | < 1 µM | > 100 µM |  |  |
| CN(C(=O)OC(C)(C)C)[C@@H](Cc1ccccc1)C(=O)N1CCCC[C@@H]1C(=O)Nc1ccc(C#Cc2cn(CCO)nc2-c2cc(Cl)ccc2O)cc1 [Compound 42] | < 1 µM | < 1 µM | 10 to 100 µM |  |  |
| Cc1ccc(O)c(-c2nn(C)cc2C#Cc2ccc(NC(=O)[C@@H]3CS(=O)(=O)CCN3C(=O)[C@H](NC(=O)OC(C)(C)C)c3ccccc3)cc2)c1 [Compound 45] | < 1 µM | < 1 µM | > 100 µM |  |  |
